Tests used:
[1] = Antagonist activity at CRTh2 in human peripheral blood assessed as inhibition of PGD2-induced eosinophil shape change at room temperature by flow cytometry
[2] = Inhibition of CRTH2 receptor-mediated chemotaxis in human basophils

Structure (SMILES) | IC50 [1] [nM] | IC50 [2] [nM]
Cc1c(-c2cn(CC(C)(C)C)c(=O)c3ccccc23)c2cc(F)ccc2n1CC(=O)O | 18 | –
Cc1c(-c2cn(CCCC(F)(F)F)c(=O)c3ccccc23)c2cc(F)ccc2n1CC(=O)O | 3 | –
Cc1c(-c2cn(CC(F)(F)F)c(=O)c3ccccc23)c2cc(F)ccc2n1CC(=O)O | 19 | –
Cc1c(-c2cn(C(C)C)c(=O)c3ccccc23)c2cc(F)ccc2n1CC(=O)O | 8 | 1.2

Source: BindingDB's records for doi:10.1021/jm401509e (Pfizer, 2014)
